One may read the Ki as a dissociation constant, usually derived from enzyme kinetics or from competition with a known ligand. A high value points to lower affinity. As a reminder, the inhibition is how much of the control response was suppressed. Higher therefore signals a response far below the control.

In ChEMBL document CHEMBL1144295, “Active site directed inhibitors of replication-specific bacterial DNA polymerases” (Bioorg Med Chem Lett, 2005) one finds Ki and inhibition data, which are given here for 21 molecules.

Assay [1] concerns the target T1, DNA polymerase III PolC-type (Bacillus subtilis (strain 168), UniProt P13267). Put plainly: Inhibitory constant against DNA polymerases IIIC produced by Bacillus subtilis; (a).
Assay [2] has as its target T2, DNA polymerase III subunit alpha (Escherichia coli K-12, UniProt P10443). Kind of assay: Inhibition against DNA polymerases IIIE from Escherichia coli; (a); IN=<10% inhibition at highest concentration tested.
The target in assay [3] is T3, DNA polymerase III subunit alpha (Bacillus subtilis (strain 168), UniProt O34623).
T3 sequence (O34623 whole entry): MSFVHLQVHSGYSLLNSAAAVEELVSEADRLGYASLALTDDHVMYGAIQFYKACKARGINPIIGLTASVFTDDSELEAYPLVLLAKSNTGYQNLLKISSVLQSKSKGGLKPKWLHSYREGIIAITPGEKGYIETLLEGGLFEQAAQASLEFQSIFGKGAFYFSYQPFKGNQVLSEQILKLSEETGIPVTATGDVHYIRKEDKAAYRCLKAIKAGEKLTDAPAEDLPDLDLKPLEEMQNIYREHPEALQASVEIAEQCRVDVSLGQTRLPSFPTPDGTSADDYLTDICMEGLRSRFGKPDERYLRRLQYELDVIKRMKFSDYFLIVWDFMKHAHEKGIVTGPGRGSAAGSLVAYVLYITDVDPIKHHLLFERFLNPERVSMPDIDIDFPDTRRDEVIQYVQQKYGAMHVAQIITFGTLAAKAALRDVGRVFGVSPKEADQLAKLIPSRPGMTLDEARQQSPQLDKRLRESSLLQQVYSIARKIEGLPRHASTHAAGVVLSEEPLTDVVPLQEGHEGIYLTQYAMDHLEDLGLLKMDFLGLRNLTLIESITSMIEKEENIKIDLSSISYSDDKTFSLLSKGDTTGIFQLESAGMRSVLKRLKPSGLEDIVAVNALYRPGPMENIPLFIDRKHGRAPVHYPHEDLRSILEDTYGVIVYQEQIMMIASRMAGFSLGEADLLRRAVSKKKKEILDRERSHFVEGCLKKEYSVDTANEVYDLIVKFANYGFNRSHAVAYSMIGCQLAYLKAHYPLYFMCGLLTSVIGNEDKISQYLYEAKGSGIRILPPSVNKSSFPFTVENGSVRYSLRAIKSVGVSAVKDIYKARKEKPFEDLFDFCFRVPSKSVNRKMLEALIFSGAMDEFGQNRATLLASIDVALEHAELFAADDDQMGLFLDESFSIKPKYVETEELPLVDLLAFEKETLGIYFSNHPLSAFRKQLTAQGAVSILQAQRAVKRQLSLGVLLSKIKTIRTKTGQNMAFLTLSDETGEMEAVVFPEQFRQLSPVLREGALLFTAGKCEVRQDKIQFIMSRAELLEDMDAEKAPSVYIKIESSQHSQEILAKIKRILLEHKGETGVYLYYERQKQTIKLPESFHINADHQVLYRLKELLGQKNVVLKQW
Kind of assay: Inhibition of DNA polymerases IIIE from Bacillus subtilis; (a); IN=<10% inhibition at highest concentration tested.

Assay [4] deals with T1, DNA polymerase III PolC-type. Put plainly: Inhibition of DNA polymerases IIIC produced by Bacillus subtilis; (a); IN=<10% inhibition at highest concentration tested.
Assay [5] addresses T2, DNA polymerase III subunit alpha. Kind of assay: Inhibitory constant against DNA polymerases IIIE from Escherichia coli; (a).

Each structure is given as a SMILES string.

T1 sequence (P13267 whole entry): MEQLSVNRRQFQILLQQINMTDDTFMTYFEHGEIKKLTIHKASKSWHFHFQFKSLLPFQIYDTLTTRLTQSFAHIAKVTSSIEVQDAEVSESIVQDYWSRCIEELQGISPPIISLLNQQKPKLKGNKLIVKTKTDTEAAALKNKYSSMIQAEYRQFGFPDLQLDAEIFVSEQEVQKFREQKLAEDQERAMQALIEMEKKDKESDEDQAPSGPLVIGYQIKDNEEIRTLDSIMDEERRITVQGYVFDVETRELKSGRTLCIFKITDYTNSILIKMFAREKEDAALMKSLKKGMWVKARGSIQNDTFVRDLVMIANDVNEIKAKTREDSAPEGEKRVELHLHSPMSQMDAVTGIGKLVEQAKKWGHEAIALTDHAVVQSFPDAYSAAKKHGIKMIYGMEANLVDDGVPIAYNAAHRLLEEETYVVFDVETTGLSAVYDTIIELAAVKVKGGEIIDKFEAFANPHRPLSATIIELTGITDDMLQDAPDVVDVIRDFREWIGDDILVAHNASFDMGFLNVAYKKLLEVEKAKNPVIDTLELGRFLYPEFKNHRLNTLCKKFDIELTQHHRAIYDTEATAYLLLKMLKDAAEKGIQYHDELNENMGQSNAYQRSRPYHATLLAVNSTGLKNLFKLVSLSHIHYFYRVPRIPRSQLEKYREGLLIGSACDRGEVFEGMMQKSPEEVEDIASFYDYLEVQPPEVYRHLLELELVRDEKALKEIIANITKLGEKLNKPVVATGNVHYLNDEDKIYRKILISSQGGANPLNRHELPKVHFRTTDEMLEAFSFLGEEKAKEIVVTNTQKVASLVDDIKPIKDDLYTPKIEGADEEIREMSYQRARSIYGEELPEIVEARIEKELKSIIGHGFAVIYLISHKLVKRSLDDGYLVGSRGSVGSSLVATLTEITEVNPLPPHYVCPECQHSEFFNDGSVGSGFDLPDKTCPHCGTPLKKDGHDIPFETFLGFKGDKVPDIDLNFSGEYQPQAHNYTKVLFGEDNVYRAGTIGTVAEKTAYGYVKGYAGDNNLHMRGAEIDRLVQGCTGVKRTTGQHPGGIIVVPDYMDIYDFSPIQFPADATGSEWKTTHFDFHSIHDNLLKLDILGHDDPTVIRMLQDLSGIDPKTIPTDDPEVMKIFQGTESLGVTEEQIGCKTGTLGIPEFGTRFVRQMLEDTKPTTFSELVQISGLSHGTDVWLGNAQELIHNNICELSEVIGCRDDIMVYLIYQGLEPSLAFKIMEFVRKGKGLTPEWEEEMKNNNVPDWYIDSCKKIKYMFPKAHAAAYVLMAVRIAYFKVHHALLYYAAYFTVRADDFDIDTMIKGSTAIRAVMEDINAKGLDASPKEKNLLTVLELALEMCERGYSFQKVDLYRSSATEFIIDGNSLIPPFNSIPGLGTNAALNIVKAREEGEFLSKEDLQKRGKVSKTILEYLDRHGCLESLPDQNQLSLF
T2 sequence (P10443 whole entry): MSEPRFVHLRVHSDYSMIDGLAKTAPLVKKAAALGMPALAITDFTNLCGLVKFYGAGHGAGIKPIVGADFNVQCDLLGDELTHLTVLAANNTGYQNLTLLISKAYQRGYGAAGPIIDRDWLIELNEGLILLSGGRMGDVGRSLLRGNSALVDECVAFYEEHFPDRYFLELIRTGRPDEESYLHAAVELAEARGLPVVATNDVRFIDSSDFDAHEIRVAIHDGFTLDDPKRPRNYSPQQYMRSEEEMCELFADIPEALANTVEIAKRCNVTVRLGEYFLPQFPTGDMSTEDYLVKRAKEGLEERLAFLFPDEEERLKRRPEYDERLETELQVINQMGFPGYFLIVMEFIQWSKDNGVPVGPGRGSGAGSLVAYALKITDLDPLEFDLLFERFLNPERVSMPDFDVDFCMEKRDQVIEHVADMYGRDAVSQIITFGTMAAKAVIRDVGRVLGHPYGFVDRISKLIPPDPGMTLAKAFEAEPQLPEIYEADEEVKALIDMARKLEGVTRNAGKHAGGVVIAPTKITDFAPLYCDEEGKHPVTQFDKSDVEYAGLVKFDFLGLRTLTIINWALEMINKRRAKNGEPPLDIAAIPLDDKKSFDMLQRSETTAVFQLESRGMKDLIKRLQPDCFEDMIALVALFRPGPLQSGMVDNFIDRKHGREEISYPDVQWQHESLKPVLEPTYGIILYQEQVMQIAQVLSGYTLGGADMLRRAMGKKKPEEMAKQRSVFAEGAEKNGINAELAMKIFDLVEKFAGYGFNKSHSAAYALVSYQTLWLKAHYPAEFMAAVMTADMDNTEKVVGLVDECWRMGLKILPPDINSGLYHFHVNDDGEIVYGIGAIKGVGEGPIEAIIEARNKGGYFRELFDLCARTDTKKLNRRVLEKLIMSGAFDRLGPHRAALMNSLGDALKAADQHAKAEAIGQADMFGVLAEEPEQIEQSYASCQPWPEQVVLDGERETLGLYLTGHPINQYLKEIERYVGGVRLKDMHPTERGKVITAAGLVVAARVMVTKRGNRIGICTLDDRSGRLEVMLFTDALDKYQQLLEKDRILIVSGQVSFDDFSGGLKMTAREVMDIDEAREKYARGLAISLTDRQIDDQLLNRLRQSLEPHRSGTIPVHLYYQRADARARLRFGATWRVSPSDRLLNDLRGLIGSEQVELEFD

In assay [1], `CCc1cc(Nc2nc(O)c3[nH]cnc3n2)ccc1C` came in with a Ki of 2700 nM. For the same molecule, the inhibition in assay [2] was < 10%.
Turning to `CCc1cc(Nc2nc(O)c3c(ncn3CCCCO)n2)ccc1C`, the inhibition in assay [3] and in assay [2] was < 10% throughout.
As to `CS(=O)(=O)CCCCCn1cnc2nc(NCc3ccc(Cl)c(Cl)c3)nc(O)c21`, the affinity in assay [1] corresponds to a Ki of 280 nM. In other words, the sub-micromolar range.
As for `CCc1cc(Nc2nc(O)c3ncn(CCCCO)c3n2)ccc1C`, the inhibition in assay [3], in assay [4] and in assay [2] was < 10% in each case.
Regarding `CCOCCn1cnc2c(=O)[nH]c(NCc3ccc(Cl)c(Cl)c3)nc21`, in assay [1], the Ki is 116000 nM.
The molecule `CCOC(=O)CCCn1cnc2nc(NCc3ccc(Cl)c(Cl)c3)[nH]c(=O)c21` showed an inhibition constant (Ki) in assay [1] of 150 nM.
Still for that read-out and setting: the same measure for `CC(C)C(=O)OCCCCCn1cnc2nc(NCc3ccc(Cl)c(Cl)c3)[nH]c(=O)c21`: 370 nM.
The same measure, in the same setting: the value for `COCCCCCn1cnc2nc(NCc3ccc(Cl)c(Cl)c3)[nH]c(=O)c21` was 70 nM; that for `CSCCCCCn1cnc2nc(NCc3ccc(Cl)c(Cl)c3)[nH]c(=O)c21` was 230 nM.
As for `OCCCCn1cnc2c(O)nc(NCc3ccc(Cl)c(Cl)c3)nc21`, the affinity in assay [1] corresponds to a Ki of 712000 nM. This Ki is about 3100-fold higher than that of the molecule before.
The same measure, in the same setting: the value for `O=C(O)CCCn1cnc2c(=O)[nH]c(NCc3ccc(Cl)c(Cl)c3)nc21` was 28000 nM.
On the same count and under the same terms, the value for `O=C(O)CCCn1cnc2nc(NCc3ccc(Cl)c(Cl)c3)nc(O)c21` was 170 nM; that for `CCOC(=O)CCCn1cnc2c(O)nc(NCc3ccc(Cl)c(Cl)c3)nc21` was 825000 nM; that for `C[S+]([O-])CCCCCn1cnc2nc(NCc3ccc(Cl)c(Cl)c3)nc(O)c21` (stereo unspecified) was 93 nM.
On the same count and under the same terms, the same measure for `Oc1[nH]c(NCc2ccc(Cl)c(Cl)c2)nc2ncnc1-2`: 720 nM; for `C[C@@H](O)CCCCn1cnc2nc(NCc3ccc(Cl)c(Cl)c3)[nH]c(=O)c21`: 52 nM; for `O=c1[nH]c(NCc2ccc(Cl)c(Cl)c2)nc2ncn(CCOCCO)c12`: 370 nM.
The molecule `CCOCCn1cnc2nc(NCc3ccc(Cl)c(Cl)c3)[nH]c(=O)c21` registered a Ki in assay [1] of 330 nM.
In the case of `CC(=O)O[C@H](C)CCCCn1cnc2nc(NCc3ccc(Cl)c(Cl)c3)[nH]c(=O)c21`, the Ki in assay [1] turned out to be 80 nM.
The same measure, in the same setting: the same measure for `O=c1cc(NCc2ccc(Cl)c(CCl)c2)[nH]c(=O)[nH]1`: 420 nM.
For the molecule `CCc1cc(Nc2cc(=O)[nH]c(=O)[nH]2)ccc1C`, the figures for the Ki in assay [5] and in assay [1] were > 323000 nM and 310 nM, respectively.
